Assay results as given in US20210024542A1 (Torcept Therapeutics, Inc., priority 2018, published 2021).

Assays:
[1] = system: T24; test: OncoPanel cell proliferation assay, T24; format: cell-based, human; settings: for Cell Count Activity Area: T24, scale 0-10
Method: (§1) Cells were grown in RPMI 1640, 10% FBS, 2 mM L-alanyl-L-glutamine, 1 mM Na pyruvate, or a special medium. Cells were seeded into 384-well plates and incubated in a humidified atmosphere of 5% CO2 at 37° C. Compounds were added the day following cell seeding. At the same time, a time zero untreated cell plate was generated. After a 3-day incubation period, cells were fixed and stained to allow fluorescence imaging of nuclei. Compounds (1 mM stock solutions) were serially diluted in half-log steps from the highest test concentration ([…]), and assayed over 10 concentrations with a maximum assay concentration of 0.1% DMSO. Automated fluorescence microscopy was carried out using a Molecular Devices ImageXpress Micro XL high-content imager, and images were collected with a 4× objective. 16-bit TIFF images were acquired and analyzed with MetaXpress 5.1.0.41 software.
(§2) Cell proliferation was measured by the fluorescence intensity of an incorporated nuclear dye. The output is referred to as the relative cell count, where the measured nuclear intensity is transformed to percent of control (POC) using the following formula: […]
(§3) Cellular response parameters were calculated using nonlinear regression to a sigmoidal single-site dose response model:
(§4) Where y is a response measured at concentration x, A and B are the lower and upper limits of the response, C is the concentration at the response midpoint (EC50), and D is the Hill Slope (Ref. 1).
(§5) EC50 is the test compound concentration at the curve inflection point or half the effective response (parameter C of the fitted curve solution). GI50 is the concentration needed to reduce the observed growth by half (midway between the curve maximum and the time zero value). “Cell Count Activity Area” is an estimate of the integrated area above the curve (Barretina, et al. The Cancer Cell Line Encyclopedia enables predictive modelling of anticancer drug sensitivity. Nature 483: 603-607). […] In rare instances, values <0 or >10 may be observed. […] Curve-fitting, calculations, and report generation was performed using a custom data reduction engine and MathIQ based software (AIM).

[2] = system: SK-UT-1; test: OncoPanel cell proliferation assay, SK-UT-1; settings: for Cell Count Activity Area: SK-UT-1, scale 0-10
Method: (§6) Cells were seeded into 384-well plates and incubated in a humidified atmosphere of 5% CO2 at 37° C. Compounds were added the day following cell seeding. At the same time, a time zero untreated cell plate was generated. After a 3-day incubation period, cells were fixed and stained to allow fluorescence imaging of nuclei. Compounds (1 mM stock solutions) were serially diluted in half-log steps from the highest test concentration (1 micromol), and assayed over 10 concentrations with a maximum assay concentration of 0.1% DMSO. Automated fluorescence microscopy was carried out using a Molecular Devices ImageXpress Micro XL high-content imager, and images were collected with a 4× objective. 16-bit TIFF images were acquired and analyzed with MetaXpress 5.1.0.41 software.

[3] = system: A431; test: OncoPanel cell proliferation assay, A431; format: cell-based, human; settings: for Cell Count Activity Area: A431, scale 0-10
Method: as §1, §2, §3, §4, §5

[4] = system: NCIH446; test: OncoPanel cell proliferation assay, NCIH446; format: cell-based, human; settings: for Cell Count Activity Area: NCIH446, scale 0-10
Method: as §1, §2, §3, §4, §5

[5] = system: G-402; test: OncoPanel cell proliferation assay, G-402; format: cell-based, human; settings: G-402, scale 0-10
Method: as §1, §2, §3, §4, §5

[6] = system: CAMA-1; test: OncoPanel cell proliferation assay, CAMA-1; settings: for Cell Count Activity Area: CAMA-1, scale 0-10
Method: as §6

[7] = system: Hs 852.T; test: OncoPanel cell proliferation assay, Hs 852.T; format: cell-based, human; settings: for Cell Count Activity Area: scale 0-10
Method: as §1, §2, §3, §4, §5

[8] = system: PC-3; test: OncoPanel cell proliferation assay, PC-3; settings: for Cell Count Activity Area: PC-3, scale 0-10
Method: as §6

[9] = system: 786-O; test: OncoPanel cell proliferation assay, 786-O; format: cell-based, human; settings: 786-O, scale 0-10
Method: as §1, §2, §3, §4, §5

[10] = system: SK-MEL-28; test: OncoPanel cell proliferation assay, SK-MEL-28; format: cell-based, human; settings: for Cell Count Activity Area: SK-MEL-28, scale 0-10
Method: as §1, §2, §3, §4, §5

[11] = system: SW684; test: OncoPanel cell proliferation assay, SW684; format: cell-based, human
Method: as §1, with “Cells” for “Cells were grown in RPMI 1640, 10% FBS, 2 mM L-alanyl-L-glutamine, 1 mM Na pyruvate, or a special medium. Cells”
as §2, §3, §4
GI50 is the concentration needed to reduce the observed growth by half (midway between the curve maximum and the time zero value). […] In rare instances, values <0 or >10 may be observed. […] Curve-fitting, calculations, and report generation was performed using a custom data reduction engine and MathIQ based software (AIM).

[12] = system: U-87 MG; test: OncoPanel cell proliferation assay, U-87 MG; format: cell-based, human; settings: for Cell Count Activity Area: scale 0-10
Method: as §1, §2, §3, §4, §5

[13] = Homo sapiens, 72 h, 3-day incubation, read-out: Cell Count IC50

| SMILES | Cell Count Activity Area [1] | Cell Count Activity Area [2] | Cell Count Activity Area [3] | Cell Count Activity Area [4] | Cell Count Activity Area [5] | Cell Count Activity Area [6] | Cell Count Activity Area [7] | Cell Count Activity Area [8] | Cell Count Activity Area [9] | Cell Count Activity Area [10] | Cell Count Activity Area [12] | also measured |
| --- | --- | --- | --- | --- | --- | --- | --- | --- | --- | --- | --- | --- |
| CN[C@@H]1C[C@H]2O[C@@](C)([C@@H]1OC)n1c3ccccc3c3c4c(c5c6ccccc6n2c5c31)C(=O)NC4 [Staurosporine, reference compound] | 5.96 | 3.46 | 5.64 | 2.81 | 5.93 | 2.99 | 3.16 | 4.67 | 4.87 | 2.81 | 3.25 | GI50 ([6]; Homo sapiens, CAMA-1, 72 h, read-out: Cell Count GI50): 12 nM; IC50 ([6]; Homo sapiens, CAMA-1, 72 h, read-out: Cell Count IC50): 99 nM; GI50 ([11]; Homo sapiens, 72 h, SW684, 3-day incubation, read-out: Cell Count GI50): 0.95 nM |
| CO[C@H]1C[C@@H]2CC[C@@H](C)[C@@](O)(O2)C(=O)C(=O)N2CCCC[C@H]2C(=O)O[C@H]([C@H](C)C[C@@H]2CC[C@@H](O)[C@H](OC)C2)CC(=O)[C@H](C)/C=C(\C)[C@@H](O)[C@@H](OC)C(=O)[C@H](C)C[C@H](C)/C=C/C=C/C=C/1C [Rapamycin, reference compound] | 4.39 | 3.23 | 0.28 | 1.69 | 4.68 | 4.07 | 1.43 | 3.57 | 4.17 | 2.50 | 3.79 | IC50 ([1]; Homo sapiens, T-24, 72 h, T24, 3-day incubation, read-out: Cell Count IC50): 2.1 nM; EC50 ([2]; Homo sapiens, SK-UT-1, 72 h, read-out: Cell Count EC50): 0.2 nM; GI50 ([2]; Homo sapiens, SK-UT-1, 72 h, read-out: Cell Count GI50): > 1000 nM; IC50 ([2]; Homo sapiens, SK-UT-1, 72 h, read-out: Cell Count IC50): > 1000 nM; EC50 ([3]; Homo sapiens, A-431, 72 h, A431, 3-day incubation, read-out: Cell Count EC50): > 1000 nM; GI50 ([3]; Homo sapiens, A-431, 72 h, A431, 3-day incubation, read-out: Cell Count GI50): > 1000 nM; IC50 ([3]; Homo sapiens, A-431, 72 h, A431, 3-day incubation, read-out: Cell Count IC50): > 1000 nM; EC50 ([4]; Homo sapiens, NCI-H446, 72 h, NCIH446, 3-day incubation, read-out: Cell Count EC50): > 1000 nM; IC50 ([4]; Homo sapiens, NCI-H446, 72 h, NCIH446, 3-day incubation, read-out: Cell Count IC50): > 1000 nM; EC50 ([7]; Homo sapiens, 72 h, 3-day incubation, read-out: Cell Count EC50): > 1000 nM; GI50 ([7]; Homo sapiens, 72 h, 3-day incubation, read-out: Cell Count GI50): > 1000 nM; IC50 [7, 13]: > 1000 nM; EC50 ([8]; Homo sapiens, PC-3, 72 h, read-out: Cell Count EC50): 0.23 nM; IC50 ([8]; Homo sapiens, PC-3, 72 h, read-out: Cell Count IC50): > 1000 nM; IC50 ([10]; Homo sapiens, 72 h, SK-MEL-28, 3-day incubation, read-out: Cell Count IC50): > 1000 nM; IC50 ([11]; Homo sapiens, 72 h, SW684, 3-day incubation, read-out: Cell Count IC50): > 1000 nM; Cell Count Activity Area ([11]; SW684, scale 0-10): 2.81; IC50 [12, 13]: > 1000 nM |
